Measurements: patent US4645774A, “Aminoethoxybenzylalcohol derivatives, process for their preparation and pharmaceutical compositions containing them” (Richter Gedeon Vegyeszeti Gyar Rt, priority 1982, dated 1987)

Legend:
Cytochrome b-5 = Cytochrome b-5 quantity from NADH differential spectrum; format: in vivo, rat (female H. Wistar); conditions: 40 mg./kg. single oral dose, 24 hours; control 8.6 ± 0.43; ± S.E.
Procedure: (§1) The enzyme inducing activity of the compounds of the formula (I) was further tested by determining the activity of the polysubstrate monooxygenase enzyme system of the liver after treatment with a placebo and the compounds according to the invention, respectively. Female H. Wistar rats each weighing 50 to 60 g. were administered a single 40 mg./kg. dose of the test compounds, orally. 24 hours after treatment the animals were decapitated and the livers were eliminated. […] The cytochrome P-450 concentration was determined from the carbon monoxide differential spectrum of a reduced microsomal suspension (Omura T. et al.: J. Biol. Chem. 239, 2370 (1964)), the quantity of cytochrome b-5 was determined from a NADH differential spectrum (Raw J. et al.: J. Biol. Chem. 234, 1867 (1959)). The activity of NADPH: ferricytochrome C (P-450) reductase (E.C. 1.6.2.4) was measured according to Williams C. […] The activity of aniline hydroxylase was determined according to Chhabra R. S. et al.: Toxicol. […] Pharmacol., 22, 50 (1972) by measuring the velocity of p-aminophenol formation, while the […] activity was determined on the basis of the quantity of formaldehyde formed, following the method of Gourlay G. K. et al.: Biochem. Pharmacol., 27, 965 (1978). […]

aniline hydroxylase = experiment: activity of aniline hydroxylase (p-aminophenol formation); format: in vivo, rat (female H. Wistar); conditions: 40 mg./kg. single oral dose, 24 hours; control 20.3 ± 0.88; ± S.E.
Procedure: as §1

acute toxicity = experiment: acute toxicity; set-up: species or system rat (H-Wistar, both sexes); conditions: rat, in vivo, po; for mortality at 336 h: 500 mg./kg. p.o. single dose, 14 days observation, n=10, read-out: Perished animals
Procedure: The acute toxicity of the compounds of the formula (I) was determined on H-Wistar rats of both sexes, each weighing 160 to 180 g. The compounds were administered in a single 500 mg./kg. dose, orally.

[1] = system: NADPH: ferricytochrome C (P-450) reductase (E.C. 1.6.2.4); experiment: activity of NADPH: ferricytochrome C (P-450) reductase; format: in vivo, rat (female H. Wistar); conditions: 40 mg./kg. single oral dose, 24 hours; control 4686 ± 286.2; ± S.E.
Procedure: as §1

liver = experiment: Relative weight of liver after treatment; format: in vivo, rat (female H. Wistar); conditions: 40 mg./kg. single oral dose, 24 hours; control 4.3 ± 0.17; ± S.E.
Procedure: as §1

hexobarbital oxidase = experiment: in vivo measurement of hexobarbital oxidase activity (hexobarbital narcosis period); set-up: species or system rat (female Hann.-Wistar); conditions: 40 mg./kg. oral single dose, n=10, mean ± S.E.; for Narcosis period in % of the control, 1 hour: hexobarbital sodium 60 mg./kg. i.v. 1 hour after; for Narcosis period in % of the control, 24 hours: hexobarbital sodium 60 mg./kg. i.v. 24 hours after
Procedure: The enzyme-inducing potency of the new compounds according to the invention was determined by several methods. One of these methods was the in vivo measurement of hexobarbital oxidase activity.
To determine the change of hexobarbital oxidase activity female Hann.-Wistar rats, each weighing 50 to 60 g. were treated orally with a single 40 mg./kg. dose of the active agent. One and 24 hours after the administration of the active agent, respectively, the animals were narcotized with a 60 mg./kg. i.v. dose of hexobarbital sodium, and the time elapsed until complete wakening from ceasing of the righting reflex was measured (Noordhoex J.: Eur. J. Pharmacol, 3, 242, 1968). As a reference compound phenobarbital was used. The data were recorded, and the mean values, the standard errors, as well as the percentage increase with respect to the control were calculated for each group. Abbreviations:
S.E.=standard error of the mean value,
The control group was treated with a placebo. [formula] A=α-ethyl-α-(3-trifluoromethylphenyl)-4-[2-(piperidin-l-yl)-eth oxy]-benzylalcohol;

Cytochrome P-450 = Cytochrome P-450 concentration from carbon monoxide differential spectrum; format: in vivo, rat (female H. Wistar); conditions: 40 mg./kg. single oral dose, 24 hours; control 12.8 ± 0.63; ± S.E.
Procedure: as §1

Microsomal protein = Microsomal protein of the liver after treatment; format: in vivo, rat (female H. Wistar); conditions: 40 mg./kg. single oral dose, 24 hours; control 29.3 ± 1.01; ± S.E.
Procedure: as §1

[2] = system: aminopyridine demethylase; experiment: aminopyridine demethylase activity (formaldehyde formed); format: in vivo, rat (female H. Wistar); conditions: 40 mg./kg. single oral dose, 24 hours; control 254.8 ± 7.47; ± S.E.
Procedure: as §1

mice and rats = format: in vivo; conditions: orally, even in a dose of 40 mg./kg.
Source text: The central nervous activities of the compounds according to the invention were examined on mice and rats with the following methods: electroshock (Swinyard, E. A., Brown, W. C., Goodman, L. S.: J. Pharmacol. Exp. Ther. 106, 319 (1952)), metrazole spasm (Everett, G. M., Richards, R. K.: J. Pharmacol. Exp. Ther. 81, 402 (1944)), thiosemicarbazide spasm ( Da Venzo, J. P., Greig, M. E., Cormin, M. A.: Amer. J. Physiol. 201, 833 (1961)), strychnine spasm (Kerley, T. L., Richards, A. G., Begley, R. W., Abreu, B. B., Wesver, L. C.: J. Pharmacol. Exp. Ther. 132, 360 (1961)), nicotine spasm (Stone, C. A., Mecklenburg, K. L., Torhans, M. L.: Arch. Int. Pharmacodyn. 117, 419 (1958)), rotarod test (Kinnard, W. C., Carr, C. J.: J. Pharmacol. Expt. Ther. 121, 354 (1957)), physostigmine lethality preventing effect (Nose, T., Kojima, M.: Europ. J. Pharmacol. 10, 83 (1970)), yohimbine potentiation effect (Quinton, R. M.: Brit. J. Pharmacol. 21, 51 (1963)), and analgesic activity (Bianchi, G., Francheschini, J.: Brit. J. Pharm. Chemother. 9, 280 (1954)).
As a reference substance, phenobarbital was used. […].

Structure (SMILES)	Cytochrome b-5 (nmoles/g. of liver), % of control (Cytochrome b-5) [%]	Aniline hydroxylase (nmoles/g. of liver/min.), % of control (aniline hydroxylase) [%]	mortality at 336 h (acute toxicity) [%]	c(P-450)reductase (nmoles/g. of liver/min.), % of control [1] [%]	Relative weight of liver (g./100 g. of body weight), % of control (liver) [%]	Narcosis period in % of the control, 1 hour (hexobarbital oxidase) [%]	Narcosis period in % of the control, 24 hours (hexobarbital oxidase) [%]	Cytochrome P-450 (nmoles/g. of liver), % of control (Cytochrome P-450) [%]	Microsomal protein (mg./g. of liver), % of control (Microsomal protein) [%]	Aminopyridine demethylase (nmoles/g./min.), % of control [2] [%]	LD50 (acute toxicity; footnote x of Table 3) [mg/kg]	central nervous activities (mice and rats)
CCC(O)(c1ccc(F)cc1)c1ccc(OCCN2CCCCC2)cc1 (stereo not drawn) [D, α-Ethyl-α-(4-fluorophenyl)-4-[2-(piperidin-1-yl)-ethoxy]-benzylalcohol]	116 ± 4.8	131 ± 5.9	0	178 ± 16.2	122 ± 4.9	120 ± 4.2	53 ± 3.7	163 ± 8.7	111 ± 4.2	123 ± 7.8		
CCC(O)(c1ccc(OCCN(C)C)cc1)c1cccc(C(F)(F)F)c1 (stereo not drawn) [B, α-ethyl-α-(3-trifluoromethylphenyl)-4-[2-(dimethylamino)-ethoxy]-benzylalcohol]			0			180 ± 10.0	49 ± 3.3					
CCC1(c2ccccc2)C(=O)NC(=O)NC1=O [phenobarbital, reference compound]						250 ± 15.8	60 ± 7.3				245	strong anticonvulsive muscle-coordinating and sedative effects
CCC(O)(c1ccc(OCCN2CCCC2)cc1)c1ccccc1OC (stereo not drawn) [C, α-Ethyl-α-(2-methoxyphenyl)-4-[2-(pyrrolidin-1-yl)-ethoxy]-benzylalcohol]			0			113 ± 12.0	57 ± 7.8					
CCC(O)(c1ccc(OCCN2CCCCC2)cc1)c1cccc(C(F)(F)F)c1 (stereo not drawn) [A, α-Ethyl-α-(3-trifluoromethylphenyl)-4-[2-(piperidin-1-yl)-ethoxy]-benzylalcohol]			0			177 ± 5.0	49 ± 0.7					
